One series in a line: Cytotoxicity assay (XTT). The format is cell-based. The following applies: human, HepG2 cells, XTT; mean ± SD, at least two independent experiments; read-out: CC50 (concentration of a compound causing 50% cytotoxicity). (In general: Tetrazolium assays rely on reduction of a dye to a coloured formazan, in cell work by metabolically active cells.)
The next series has as its system HBV replication. The series is described as follows: Antiviral assay (HBV replication luciferase reporter in HuH-7 cells). In kind it is cell-based, Hepatitis B virus. The following applies: mean ± SD, at least two independent experiments.
Another series relates to HepG2 cells. The series is described as follows: Cytotoxicity assay (XTT). The format is cell-based. The following applies: for Concentration without cytotoxicity: cytotoxicity assay.
Series [1] is described as follows: Aqueous solubility (thermodynamic, DPBS). The format is physicochemical. Particulars: Dulbecco's Phosphate-Buffered Saline (DPBS), aqueous buffer, thermodynamic from solid, pH 7.2, n = 3.
Series [2] can be described thus: Plasma stability, human plasma. In kind it is in vitro ADME. The following applies: pH 7.4, n = 3, read-out: Plasma Stability t1/2.
Series [3] is described as follows: Plasma stability, mouse plasma. In kind it is in vitro ADME. Particulars: CD-1, pH 7.4, n = 3, read-out: Plasma Stability t1/2.
The nature of series [4]: Microsomal stability, human liver microsomes. The format is in vitro ADME. Particulars: pH 7.4, cofactor NADPH, n = 3, read-out: Microsomal Stability t1/2. For orientation: Liver microsomes are a subcellular fraction often used to study metabolism.
Series [5] in a line: Microsomal stability, mouse liver microsomes. The format is in vitro ADME. The following applies: pH 7.4, cofactor NADPH, n = 3, read-out: Microsomal Stability t1/2.
A further series addresses T1, HBV Cp (C150 dimer) (Hepatitis B virus genotype D subtype adw, UniProt P03147, R150C).
T1 construct: made in house; host or cells: E. coli BL21 (DE3), pET11a
The series is described as follows: Thermal shift assay (TSA). In kind it is binding. Particulars: 20 µM compound, 1% DMSO.

Values after ≈ are worked out from the molar mass of the structure shown.

Data on eleven compounds can be found in publication PMC8146408 (Viruses, 2021).

T1 sequence (P03147 1-150 R150C): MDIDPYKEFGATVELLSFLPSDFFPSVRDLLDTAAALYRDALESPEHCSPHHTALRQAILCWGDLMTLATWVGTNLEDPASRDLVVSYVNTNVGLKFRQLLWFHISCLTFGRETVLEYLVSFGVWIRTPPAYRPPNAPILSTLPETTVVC

For the compound `Cc1cc(NC(=O)c2cc(C#N)c(=O)[nH]c2C)ccc1F` [ZW-1840], the CC50 in the series “Cytotoxicity assay (XTT)” is over 100 µM.

For `Cc1cc(NC(=O)c2cnc3nc4ccccc4n3c2C)ccc1F` [ZW-1841], the “EC50 (concentration of a compound inhibiting HBV replication by 50%)” value in the series on HBV replication was “single-digit”. Besides, the CC50 in “Cytotoxicity assay (XTT)” was over 100 µM. Also, the Concentration without cytotoxicity with HepG2 cells is listed as at least 100 µM. In series [1], this compound returned a solubility at 72 h of 0.31 ± 0.03 µM (≈ 0.104 µg/mL). The half-life at 1 µM in [2] is over 6 h; in series [3], over 6 h; in [4], over 2 h; in series [5] it was 0.543 ± 0.0267 h. Also, at HBV Cp (C150 dimer), the “TSA profile (effect on HBV Cp melting curve)” value (“TSA profile” below) is “bind to HBV Cp and affect capsid formation and stability”.

Turning to `Cc1cn2c(C)c(C(=O)Nc3ccc(F)c(C)c3)cnc2n1` [ZW-1842], the CC50 in the series “Cytotoxicity assay (XTT)” was over 100 µM.

Turning to `CC1=C(C(=O)Nc2ccc(F)c(C)c2)C=Nc2ccccc2N1` [ZW-1843], in “Cytotoxicity assay (XTT)”, the CC50 is over 100 µM.

On to `CSc1c(C(=O)Nc2ccc(F)c(C)c2)c(C)[nH]c(=O)c1C#N` [ZW-1845], for which the CC50 in “Cytotoxicity assay (XTT)” was over 100 µM.

Take `Cc1cc(NC(=O)c2c(C)[nH]c(=O)c3c(N)n[nH]c23)ccc1F` [ZW-1847]: the “EC50 (concentration of a compound inhibiting HBV replication by 50%)” value in the series on HBV replication is recorded as “single-digit”. Further, in the series “Cytotoxicity assay (XTT)”, the CC50 was over 100 µM. The Concentration without cytotoxicity in the series with HepG2 cells was at least 100 µM. Also, the solubility at 72 h in [1] amounted to 2.14 ± 0.03 µM (≈ 0.675 µg/mL). For the same compound, the half-life at 1 µM in [2] was over 6 h; in series [3], over 6 h; in series [4], over 2 h; in series [5], over 2 h. In addition, the “TSA profile” value on HBV Cp (C150 dimer) was “bind to HBV Cp and affect capsid formation and stability”.

Take `CC1Oc2c(cccc2C(=O)Nc2cccc(C(F)F)c2)NC1=O` (centres unmarked) [ZW-1888]: the CC50 was 47 µM in the series “Cytotoxicity assay (XTT)” and 46.6 ± 2.4 µM with HepG2 cells (HepG2 cells, XTT, mean ± SD, at least two independent experiments, read-out: CC50 (concentration of a compound causing 50% cytotoxicity)). For the same compound, at HBV Cp (C150 dimer), the “TSA profile” value was “bind to HBV Cp and affect capsid formation and stability”.

Take `O=C1NC2(CCCC2)C(=O)N1Cc1cn(-c2ccccc2)nc1-c1ccccc1` [ZW-1889]: the CC50 in the series “Cytotoxicity assay (XTT)” is 58.2 ± 5.6 µM.

Regarding `Cc1cc(C)c(CNC(=O)c2cn(Cc3ccccc3)nc2-c2ccccc2)c(=O)[nH]1` [ZW-1918], in the series “Cytotoxicity assay (XTT)”, the CC50 is 47.6 ± 0.2 µM.

In the case of `COc1cccc(N2CC(C(=O)Nc3cccc(Cl)c3C)CC2=O)c1` (centres unmarked) [ZW-1929], the CC50 in “Cytotoxicity assay (XTT)” is 41.3 ± 1.7 µM.

`Cc1cccc(NC(=O)c2cccc(CN3C(=O)CNC3=O)c2)c1` [ZW-1946]: in “Cytotoxicity assay (XTT)”, the CC50 is 44.1 ± 0.6 µM.

For orientation: solubility means the concentration that dissolves in the medium under given conditions. Read a high solubility as a readily soluble substance.
